Results taken from US8946426B2, “Substituted bicyclic heterocyclic compounds as gamma secretase modulators” (Janssen Pharmaceuticals, Inc., priority 2009, dated 2015).

Columns and labels:
Aβtotal = test: Method 1: Aβtotal sandwich ELISA in supernatant of SKNBE2 cells carrying APP 695-wild type (Tables 7a, 7b); assay type: cell-based
Experimental: (§1) Screening was carried out using SKNBE2 cells carrying the APP 695-wild type, grown in Dulbecco's Modified Eagle's Medium/Nutrient mixture F-12 (DMEM/NUT-mix F-12) (HAM) provided by Gibco (cat no. 31330-38) containing 5% Serum/Fe supplemented with 1% non-essential amino acids. Cells were grown to near confluency.
(§2) The screening was performed using the assay as described in Citron et al (1997) Nature Medicine 3: 67. Briefly, cells were plated in a 96-well plate at about 10^5 cells/ml one day prior to addition of compounds. Compounds were added to the cells in Ultraculture (Lonza, BE12-725F) supplemented with 1% glutamine (Invitrogen, 25030-024) for 18 Hours. The media were assayed by two sandwich ELISAs, for Aβ42 and Aβtotal. Toxicity of the compounds was assayed by WST-1 cell proliferation reagent (Roche, 1 644 807) according to the manufacturer's protocol.
To quantify the amount of Aβtotal in the cell supernatant, samples and standards were added to a 6E10-coated plate. The plate was allowed to incubate overnight at 4° C. in order to allow formation of the antibody-amyloid complex. Following this incubation and subsequent wash steps a selective anti-Aβ-antibody conjugate (biotinylated 4G8) was added and incubated for a minimum of 1 Hour in order to allow formation of the antibody-Amyloid-antibody-complex. After incubation and appropriate wash steps, a Streptavidine-Peroxidase-Conjugate was added, followed 30 minutes later by an addition of Quanta Blu fluorogenic peroxidase substrate according to the manufacturer's instructions (Pierce Corp., Rockford, Ill.).
(§3) To obtain the values reported in Table 7a, the sigmoidal dose response curves were analysed by computerised curve-fitting, with percent of inhibition plotted against compound concentration. A 4-parameter equation (model 205) in XLfit was used to determine the IC50. The top and the bottom of the curve were fixed to 100 and 0, respectively, and the hill slope was fixed to 1. The IC50 represents the concentration of a compound that is required for inhibiting a biological effect by 50% (Here, it is the concentration where Aβ peptide level is reduced by 50%).
(§4) To obtain the values reported in Table 7b, the data were calculated as percentage of the maximum amount of amyloid Beta 42 measured in the absence of the test compound. The sigmoidal dose response curves were analyzed using non-linear regression analysis with percentage of the control plotted against the log concentration of the compound. A 4-parameter equation was used to determine the IC50. The values reported in Table 7b are averaged IC50 values.

Aβ42 = test: Method 1: Aβ42 sandwich ELISA in supernatant of SKNBE2 cells carrying APP 695-wild type (Tables 7a, 7b); assay type: cell-based
Experimental: as §1, §2
To quantify the amount of Aβ42 in the cell supernatant, commercially available Enzyme-Linked-Immunosorbent-Assay (ELISA) kits were used (Innotest® β-Amyloid(1-42), Innogenetics N.V., Ghent, Belgium). The Aβ42 ELISA was performed essentially according to the manufacturer's protocol. Briefly, the standards (dilutions of synthetic Aβ1-42) were prepared in polypropylene Eppendorf with final concentrations of 8000 down to 3.9 pg/ml (½ dilution step). Samples, standards and blanks (100 μl) were added to the anti-Aβ42-coated plate supplied with the kit (the capture antibody selectively recognizes the C-terminal end of the antigen). The plate was allowed to incubate 3 H at 25° C. in order to allow formation of the antibody-amyloid complex. Following this incubation and subsequent wash steps a selective anti-Aβ-antibody conjugate (biotinylated 3D6) was added and incubated for a minimum of 1 Hour in order to allow formation of the antibody-Amyloid-antibody-complex. After incubation and appropriate wash steps, a Streptavidine-Peroxidase-Conjugate was added, followed 30 minutes later by an addition of 3,3′,5,5′-tetramethylbenzidine (TMB)/peroxide mixture, resulting in the conversion of the substrate into a coloured product. This reaction was stopped by the addition of sulfuric acid (0.9 N) and the colour intensity was measured by means of photometry with an ELISA-reader with a 450 nm filter.
as §3, §4

[1] = Homo sapiens, SKNBE2, Table 7b, averaged IC50, non-linear regression of percentage of control vs log concentration, 4-parameter equation
[2] = Homo sapiens, Table 7a, SKNBE2 cells, compounds 18 h, XLfit 4-parameter fit of percent inhibition, top/bottom fixed to 100/0, hill slope 1
[3] = Table 7a, SKNBE2 cells, compounds 18 h, XLfit 4-parameter fit of percent inhibition, top/bottom fixed to 100/0, hill slope 1
[4] = Table 7b, averaged IC50, non-linear regression of percentage of control vs log concentration, 4-parameter equation

Row | SMILES | IC50 (Aβtotal; [1]) [nM] | IC50 (Aβtotal; [2]) [nM] | IC50 (Aβ42; [1]) [nM] | IC50 (Aβ42; [2]) [nM] | IC50 (Aβtotal; [3]) [nM] | IC50 (Aβtotal; [4]) [nM] | IC50 (Aβ42; [3]) [nM] | IC50 (Aβ42; [4]) [nM]
1 | COc1cccc(-c2nc3c(Nc4ccc(-c5cnc(C)s5)c(OC)c4)cccn3c2C)c1 [Compound 4] | > 3000 | > 3000 | 63 | 67 |  |  |  | 
2 | COc1cccc(-c2nc3c(Nc4ccc(-c5sc(C)nc5C)c(OC)c4)cccn3c2C)c1 [Compound 5] | > 3000 | > 3000 | 78 | 63 |  |  |  | 
3 | COc1cccc(-c2nc3c(Nc4ccc(-c5cn(C)nc5C)c(OC)c4)cccn3c2C)c1 [Compound 6] | > 3000 | > 3000 | 102 | 77 |  |  |  | 
4 | COc1cc(Nc2cccn3cc(-c4ccc(F)cc4)nc23)ccc1-c1oc(C)nc1C [Compound 7] | > 10000 | > 10000 | 302 | 334 |  |  |  | 
5 | COc1cc(Nc2cccn3c(C)c(-c4ccccc4)nc23)ccc1-c1oc(C)nc1C [Compound 8] | > 5000 | > 5000 | 282 | 275 |  |  |  | 
6 | COc1cc(Nc2cccc3c2nc(-c2ccc(F)cc2)n3C)ccc1-c1ccnn1C [Compound 9] | > 3000 | > 3000 | 240 | 399 |  |  |  | 
7 | Cc1ncc(-c2ccc(Nc3cccc4c3nc(-c3ccc(F)cc3)n4C(C)C)nc2)o1 [Compound 15] | > 3000 |  | 100 |  |  |  |  | 
8 | Cc1ncc(-c2ccc(Nc3cccc4c3nc(-c3ccc(F)cc3)n4C(C)C)cc2)o1 [Compound 19] |  |  |  |  | > 3000 | > 3000 | 49 | 28
9 | COc1cccc(-c2nc3c(Nc4ccc(-c5ocnc5C)c(OC)c4)cccc3n2C)c1 [Compound 20] |  |  |  |  | > 1000 | > 1000 | 13 | 17
10 | COc1cccc(-c2nc3c(Nc4ccc(-c5cnc(C)o5)cc4)cccc3n2C(C)C)c1 [Compound 21] |  |  |  |  |  | > 3000 |  | 9
11 | Cc1ncc(-c2ccc(Nc3nccc4c3nc(-c3ccc(F)cc3)n4C)cc2)o1 [Compound 23] |  |  |  |  | > 3000 | > 3000 | 417 | 398
12 | COc1cc(Nc2cccc3c2nc(-c2ccc(F)cc2)n3C)ccc1-c1oc(C)nc1C [Compound 24] |  |  |  |  | > 3000 | > 3000 | 56 | 55
13 | COc1cc(Nc2nccc3c2nc(-c2ccc(F)cc2)n3C(C)C)ccc1-c1cnc(C)o1 [Compound 27] |  |  |  |  |  | > 3000 |  | 676
14 | Cc1ncc(-c2ccc(Nc3cccc4c3nc(-c3ccc(F)cc3)n4C(C)C)cc2F)o1 [Compound 28] |  |  |  |  |  | > 3000 |  | 110
15 | Cc1ncc(-c2ccc(Nc3cccc4c3nc(-c3ccc(F)cc3)n4C)cn2)o1 [Compound 29] |  |  |  |  | > 3000 | > 3000 | 29 | 28
16 | Cc1ncoc1-c1ccc(Nc2cccc3c2nc(-c2cccc(Cl)c2)n3C)nc1 [Compound 32] |  |  |  |  | > 10000 | > 10000 | 235 | 282
17 | COc1cc(-c2nc3c(Nc4ccc(-c5ocnc5C)cn4)cccc3n2C)ccc1Cl [Compound 33] |  |  |  |  | > 10000 | > 10000 | 102 | 141
18 | Cc1ncoc1-c1ccc(Nc2cccc3c2nc(-c2ccc(F)cc2)n3C(C)(C)C)cn1 [Compound 34] |  |  |  |  | > 3000 | > 3000 | 16 | 110
19 | COCCn1c(C)nc2c(Nc3ccc(-c4cnc(C)s4)c(OC)c3)cccc21 [Compound 37] |  |  |  |  |  | > 3000 |  | 380
20 | Cc1ncc(-c2ccc(Nc3cccn4cc(-c5ccccc5C)nc34)cc2)o1 [Compound 39] |  |  |  |  | > 3000 | > 3000 | 53 | 51
21 | Cc1ncc(-c2ccc(Nc3cccn4cc(-c5ccc(F)cc5)nc34)cc2)o1 [Compound 42] |  |  |  |  | > 3000 | > 3000 | 96 | 123
22 | Cc1cc(F)ccc1-c1cn2cccc(Nc3ccc(-c4ocnc4C)nc3)c2n1 [Compound 44] |  |  |  |  | > 10000 | > 10000 | 140 | 138
